Source: US20230151075A1, “PARATHYROID HORMONE ATTENUATES LOW BACK PAIN AND OSTEOARTHRITIC PAIN” (The Johns Hopkins University, priority 2019, published 2023)

Key:
primary DRG neurons = test: Sodium indication (ANG-2 AM) in primary DRG neurons; format: cell-based, mice
Procedure: DRG neuron culture was processed as described previously. Saijilafu and Zhou, 2012. Briefly, the dishes or coverslips for DRG neuron culture were coated with 50 μL working solution containing 100 μg/mL Poly-D-Lysine and 10 µg/mL Laminin at 37° C. To prepare the neuron culture medium, alpha minimum essential medium (α-MEM) was supplemented with 1× penicillin-streptomycin solution (500 units of penicillin and 500 μg of streptomycin, Gibco Laboratories, Gaithersburg, Md.), 5% fetal bovine serum (Gibco), 1× GlutaMAX-1 supplement (35050-061, Thermo Fisher Scientific), and the antimitotic reagents containing 20 μM 5-fluoro-2-deoxyuridine (F0503, Sigma-Aldrich) and 20 μM uridine (U3003, Sigma-Aldrich). For the serum-free medium, the fetal bovine serum was replaced with the supplement B27. After euthanizing the 6- to 8-week-old mice, the lumbar DRGs were harvested and stored in microfuge tubes with α-MEM medium placed on ice. DRG neurons were digested and dissociated with 1 mg/mL collagenase A solution (10103578001, Roche, Basel, Switzerland) in a 37° C. incubator for 90 min followed by 1× TrypLE Express solution (15140-122, Thermo Fisher) at 37° C. for 20 min. Then, TrypLE Express solution was removed, and DRGs were washed gently 3 times with 1 mL prepared culture medium (containing 5% fetal bovine serum). Tissue was triturated by gently pipetting up and down 20-30 times in 1 mL prepared culture medium. After trituration, the DRG neuron suspension was filtered (40-μm strainer) following non-dissociated tissue settlement to the bottom of the microfuge and transferred to another tube. After centrifugation (800 r.p.m for 4 min at room temperature), the cell pellet was resuspended and cultured in a precoated dish.
For sodium indication. ANG-2 AM (Teflabs, Austin, Tex.) was used according to the manufacturer's protocol. Briefly, 1 mM stock solution of ANG-2 AM was diluted to twice the original volume with a solution of 20% Pluronic F-127 (Thermo Fisher Scientific) in DMSO. Then, the ANG-2 AM/Pluronic F-127 solution was dispersed to final concentration at 5 μM ANG-2 AM and 0.1% Pluronic F-127 with serum-free culture medium. After incubation for 1 h at 37° C., the cell loading medium was removed. The cells were washed with serum-free and dye-free medium and prepared for sodium imaging. The sterile imaging buffer contained 5.4 mM KCL, 160 mM NaCL, 20 mM HEPES, 1.3 mM CaCL2, 0.8 mM MgSO4, 0.78 mM NaH2PO4, and 5 mM glucose (pH 7.4) The sodium imaging was monitored and captured using a confocal microscope (Zeiss LSM 780).
In different sets of experiments, the DRG neurons were treated with 20 μM PGE2 (14010, Cayman Chemical, Ann Arbor, Mich.) for 5 min. […]

PKA/CREB signaling = test: Western blot and fluorescent staining of PKA and CREB phosphorylation in primary DRG neurons; format: cell-based, mice
Procedure: DRG neuron culture was processed as described previously. Saijilafu and Zhou, 2012. Briefly, the dishes or coverslips for DRG neuron culture were coated with 50 μL working solution containing 100 μg/mL Poly-D-Lysine and 10 µg/mL Laminin at 37° C. To prepare the neuron culture medium, alpha minimum essential medium (α-MEM) was supplemented with 1× penicillin-streptomycin solution (500 units of penicillin and 500 μg of streptomycin, Gibco Laboratories, Gaithersburg, Md.), 5% fetal bovine serum (Gibco), 1× GlutaMAX-1 supplement (35050-061, Thermo Fisher Scientific), and the antimitotic reagents containing 20 μM 5-fluoro-2-deoxyuridine (F0503, Sigma-Aldrich) and 20 μM uridine (U3003, Sigma-Aldrich). For the serum-free medium, the fetal bovine serum was replaced with the supplement B27. After euthanizing the 6- to 8-week-old mice, the lumbar DRGs were harvested and stored in microfuge tubes with α-MEM medium placed on ice. […]
The primary DRG neurons were treated with 20 μM PGE2(14010, Cayman Chemical, Ann Arbor, Mich.) for 30 min; 10 μM PKA inhibitor (H-89, BML-E1196, Enzo Life Sciences, Farmingdale, N.Y.) for 1 h. […] Specific antibodies were applied for incubation, and the proteins were detected by using an enhanced chemiluminescence kit (Amersham Bioscience, RNP2108). […]

[1] = tested on: patients with Modic changes associated LBP; conditions: cited from earlier work
OA joint = conditions: intra-articular injection; cited from earlier work

For CCCCC[C@H](O)/C=C/[C@H]1[C@H](O)CC(=O)[C@@H]1C/C=C\CCCC(=O)O [PGE2, Prostaglandin E2], the PGE2-stimulated sodium influx (primary DRG neurons; DRG neurons of EP4−/− mice) was “abolished”, the “sodium influx (fluorescent intensity of sodium indicator)” value (primary DRG neurons; PGE2 20 μM 5 min, DRG neurons from EP4f/f mice) was “significantly stimulated the enhancement of the fluorescent intensity” and the “activation of PKA and CREB” value (PKA/CREB signaling; PGE2 20 μM 30 min) was “activates”.

For O=S(=O)(NCCNC/C=C/c1ccc(Br)cc1)c1cccc2cnccc12 [PKA inhibitor, H-89], the PGE2-induced sodium influx (primary DRG neurons; PGE2 20 μM combined with H-89 10 μM or siRNA for Nav 1.8) was “ablated” and the “PGE2-induced activation of PKA and CREB” value (PKA/CREB signaling; H-89 10 μM 60 min) was “abrogated”.

With CCCC(=O)Nc1ncnc2c1ncn2[C@@H]1O[C@@H]2COP(=O)(O)O[C@H]2[C@H]1OC(=O)CCC [cAMP, dibutyryl-cAMP] the sodium influx (primary DRG neurons; DRG neurons of EP4−/− mice, PGE2 combined with cAMP) was “rescued sodium influx”.

In the case of denosumab, the analgesic effects [1] is given as “analgesic effects”.

In the case of hyaluronic acid, the “duration of pain relief” value (OA joint) is given as “up to 6 months”.
